Laboratory results reported in the Kinase Knowledgebase extract (Sharma et al. 2016).

Target: CDK2 (UniProt P24941)
Assay: Enzyme Assay

Compound | IC50 [µM]
CN1CC[C@H](c2c(O)cc(O)c3c(=O)cc(Oc4ccccc4)oc23)[C@H](O)C1 | < 20
CN1CCC(c2c(O)cc(O)c3c(=O)cc(SCc4ccc(C(C)(C)C)cc4)oc23)C(O)C1 (configuration not stated) | < 20
COc1ccc(Sc2cc(=O)c3c(O)cc(O)c([C@H]4CCN(C)C[C@H]4O)c3o2)cc1 | < 20
CCSc1cc(=O)c2c(O)cc(OC)c([C@H]3CCN(C)C[C@H]3O)c2o1 | < 20
CN1CC[C@H](c2c(O)cc(O)c3c(=O)cc(Sc4ccccc4Cl)oc23)[C@H](O)C1 | < 20
CN1CCC(c2c(O)cc(O)c3c(=O)cc(SCCO)oc23)C(O)C1 (configuration not stated) | < 20
CN1CC[C@H](c2c(O)cc(O)c3c(=O)cc(SCc4ccccc4)oc23)[C@H](O)C1 | < 20
CN1CCC(c2c(O)cc(O)c3c(=O)cc(Sc4ccccc4Cl)oc23)C(O)C1 (configuration not stated) | < 20
CCSc1cc(=O)c2c(O)cc(O)c([C@H]3CCN(C)C[C@H]3O)c2o1 | < 20
COc1ccc(CSc2cc(=O)c3c(O)cc(O)c([C@H]4CCN(C)C[C@H]4O)c3o2)cc1 | < 20
COC(=O)CCSc1cc(=O)c2c(O)cc(O)c([C@H]3CCN(C)C[C@H]3O)c2o1 | < 20
CN1CCC(c2c(O)cc(O)c3c(=O)cc(Sc4ccc(C(C)(C)C)cc4)oc23)C(O)C1 (configuration not stated) | < 20
COc1ccc(Sc2cc(=O)c3c(O)cc(O)c(C4CCN(C)CC4O)c3o2)cc1 (configuration not stated) | < 20
CN1CC[C@H](c2c(O)cc(O)c3c(=O)cc(Sc4ccccc4)oc23)[C@H](O)C1 | < 20
CN1CCC(c2c(O)cc(O)c3c(=O)cc(Sc4ccc(OC(F)(F)F)cc4)oc23)C(O)C1 (configuration not stated) | < 20
CCc1ccc(Sc2cc(=O)c3c(O)cc(O)c(C4CCN(C)CC4O)c3o2)cc1 (configuration not stated) | < 20
CCCCSc1cc(=O)c2c(O)cc(O)c([C@H]3CCN(C)C[C@H]3O)c2o1 | < 20
CC(=O)NCCSc1cc(=O)c2c(O)cc(O)c(C3CCN(C)CC3O)c2o1 (configuration not stated) | < 20
CN1CC[C@H](c2c(O)cc(O)c3c(=O)cc(SCCO)oc23)[C@H](O)C1 | < 20
Cc1ccc(Sc2cc(=O)c3c(O)cc(O)c(C4CCN(C)CC4O)c3o2)cc1C (configuration not stated) | < 20
COc1ccc(CSc2cc(=O)c3c(O)cc(O)c(C4CCN(C)CC4O)c3o2)cc1 (configuration not stated) | < 20
CC(=O)NCCSc1cc(=O)c2c(O)cc(O)c([C@H]3CCN(C)C[C@H]3O)c2o1 | < 20
